# Source: patent US6903096B2, “Quinazoline derivatives as medicaments” (Scios, Inc., priority 1998, dated 2005)
# Tests used:
# p38-γ = biological target: T1, p38-γ (Homo sapiens, UniProt P53778); assay: Kinase specificity: p38-γ; assay type: biochemical; conditions: tested at 50 μM; approximate IC50(app)=A×i/(1−A)
# T1 sequence (P53778 1-367): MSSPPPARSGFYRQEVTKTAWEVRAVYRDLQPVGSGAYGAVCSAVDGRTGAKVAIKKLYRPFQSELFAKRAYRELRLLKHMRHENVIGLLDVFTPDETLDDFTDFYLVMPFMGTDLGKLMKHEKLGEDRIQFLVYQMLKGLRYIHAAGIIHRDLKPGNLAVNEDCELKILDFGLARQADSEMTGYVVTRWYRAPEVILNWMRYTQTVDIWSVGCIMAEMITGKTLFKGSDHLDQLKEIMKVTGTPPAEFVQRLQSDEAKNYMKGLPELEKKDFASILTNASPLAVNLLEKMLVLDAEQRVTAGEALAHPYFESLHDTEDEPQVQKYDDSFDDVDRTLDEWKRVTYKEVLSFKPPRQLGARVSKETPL
# Method: (§1) IC50 values were determined with curve-fitting plots available with common softeware packages. Approximate IC50 values were calculated using formula IC50(app)=A×i/(1−A) where A=fractional activity and i=total inhibitor concentration.
# (§2) Compounds 5 and 7 were tested for their specificity for p38 by assessing their ability to inhibit other kinases. These compounds were tested at 50 μM and were soluble at 250 μM in 5% DMSO/95% water.
# JNK1 = JNK1 (Homo sapiens, UniProt P45983); assay: Kinase specificity: JNK1; assay type: biochemical; conditions: tested at 50 μM; approximate IC50(app)=A×i/(1−A)
# Sequence of JNK1 (P45983 whole entry, species assumed): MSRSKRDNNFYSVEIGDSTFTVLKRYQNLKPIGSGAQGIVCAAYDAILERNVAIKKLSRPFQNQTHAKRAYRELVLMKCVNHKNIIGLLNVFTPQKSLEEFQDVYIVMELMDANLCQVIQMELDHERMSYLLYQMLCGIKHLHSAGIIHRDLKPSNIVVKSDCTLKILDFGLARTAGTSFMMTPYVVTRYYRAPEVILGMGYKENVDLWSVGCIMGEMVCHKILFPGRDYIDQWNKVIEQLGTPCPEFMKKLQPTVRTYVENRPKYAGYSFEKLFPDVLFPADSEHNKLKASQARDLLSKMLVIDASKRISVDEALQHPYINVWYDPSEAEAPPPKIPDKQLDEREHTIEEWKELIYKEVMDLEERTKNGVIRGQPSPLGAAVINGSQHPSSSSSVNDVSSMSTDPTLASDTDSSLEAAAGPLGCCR
# Method: as §1, §2
# PKA = PKA (Homo sapiens, UniProt P17612); assay: Kinase specificity: PKA; assay type: biochemical; conditions: tested at 50 μM; approximate IC50(app)=A×i/(1−A)
# Method: as §1, §2
# PKC = assay: Kinase specificity: PKC; assay type: biochemical; conditions: tested at 50 μM; approximate IC50(app)=A×i/(1−A)
# Method: as §1, §2
# DNA-dep PK (PKD) = DNA-dep PK (PKD) (Homo sapiens, UniProt P78527); assay: Kinase specificity: DNA-dep PK; assay type: biochemical; conditions: tested at 50 μM; approximate IC50(app)=A×i/(1−A)
# Method: as §1, §2
# cck2 = assay: Kinase specificity: cck2; assay type: biochemical; conditions: tested at 50 μM; approximate IC50(app)=A×i/(1−A)
# Method: as §1, §2
# EGF-R = EGF-R (Homo sapiens, UniProt P00533); assay: Kinase specificity: EGF-R; assay type: biochemical; conditions: tested at 50 μM; approximate IC50(app)=A×i/(1−A)
# Sequence of EGF-R (P00533 25-1210, species assumed): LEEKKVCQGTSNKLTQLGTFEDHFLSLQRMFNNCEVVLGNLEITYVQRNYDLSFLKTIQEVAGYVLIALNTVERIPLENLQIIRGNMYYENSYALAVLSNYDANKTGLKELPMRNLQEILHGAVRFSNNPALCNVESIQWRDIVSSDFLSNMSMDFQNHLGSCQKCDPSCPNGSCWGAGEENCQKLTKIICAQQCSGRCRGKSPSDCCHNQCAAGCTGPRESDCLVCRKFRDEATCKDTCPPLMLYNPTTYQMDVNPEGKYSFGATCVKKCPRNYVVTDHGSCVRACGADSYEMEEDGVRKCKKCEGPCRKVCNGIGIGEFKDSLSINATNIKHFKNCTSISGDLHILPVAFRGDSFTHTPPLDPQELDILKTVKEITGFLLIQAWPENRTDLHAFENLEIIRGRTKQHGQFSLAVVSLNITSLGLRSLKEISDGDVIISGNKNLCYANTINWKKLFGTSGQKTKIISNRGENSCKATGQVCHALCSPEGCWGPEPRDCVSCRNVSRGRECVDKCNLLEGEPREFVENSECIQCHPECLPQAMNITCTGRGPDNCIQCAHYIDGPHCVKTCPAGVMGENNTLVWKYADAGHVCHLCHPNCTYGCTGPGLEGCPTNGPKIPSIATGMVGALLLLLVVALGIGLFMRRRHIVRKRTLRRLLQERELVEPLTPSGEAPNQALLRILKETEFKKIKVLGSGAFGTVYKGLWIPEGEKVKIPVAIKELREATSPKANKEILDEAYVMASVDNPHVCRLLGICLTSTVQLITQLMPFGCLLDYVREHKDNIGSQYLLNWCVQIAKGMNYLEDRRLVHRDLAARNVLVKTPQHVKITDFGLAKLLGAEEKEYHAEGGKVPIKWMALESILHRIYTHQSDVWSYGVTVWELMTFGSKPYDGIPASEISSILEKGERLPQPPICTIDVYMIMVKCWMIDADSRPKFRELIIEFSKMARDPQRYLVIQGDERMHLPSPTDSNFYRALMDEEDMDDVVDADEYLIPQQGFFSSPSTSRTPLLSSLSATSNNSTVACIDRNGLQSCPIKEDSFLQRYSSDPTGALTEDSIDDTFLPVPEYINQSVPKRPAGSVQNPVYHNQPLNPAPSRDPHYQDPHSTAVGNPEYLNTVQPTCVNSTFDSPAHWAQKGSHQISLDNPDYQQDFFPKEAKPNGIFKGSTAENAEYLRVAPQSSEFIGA
# Method: as §1, §2
# p38-β = p38-β (Homo sapiens, UniProt Q15759); assay: p38-β inhibition; assay type: biochemical; conditions: curve fitted
# Sequence of p38-β (Q15759 whole entry): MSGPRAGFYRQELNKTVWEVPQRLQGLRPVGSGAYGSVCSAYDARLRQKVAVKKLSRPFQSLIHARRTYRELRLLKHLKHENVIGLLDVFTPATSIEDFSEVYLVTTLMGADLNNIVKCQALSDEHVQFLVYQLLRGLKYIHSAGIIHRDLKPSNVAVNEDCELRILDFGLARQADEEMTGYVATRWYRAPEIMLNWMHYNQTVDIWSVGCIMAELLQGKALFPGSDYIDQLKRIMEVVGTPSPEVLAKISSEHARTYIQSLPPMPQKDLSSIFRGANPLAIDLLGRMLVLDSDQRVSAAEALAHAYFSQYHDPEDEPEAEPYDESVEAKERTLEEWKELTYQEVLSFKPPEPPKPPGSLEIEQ
# Method: as §1
# [1] = Solubility in 5% DMSO/95% water; assay type: physicochemical; conditions: aqueous with cosolvent or surfactant or cyclodextrin, read-out: soluble at
# Method: as §2
IC50 (p38-γ) [µM],IC50 (JNK1) [µM],IC50 (PKA) [µM],IC50 (PKC) [µM],IC50 (DNA-dep PK (PKD)) [µM],IC50 (cck2) [µM],IC50 (EGF-R) [µM],IC50 (p38-β) [µM],solubility [1] [µM],Structure (SMILES)
227,167,> 250,> 100,120,245,4.2,0.928,≥ 250,"Fc1ccccc1-c1nc(Nc2ccncc2)c2ccccc2n1 [Compound 5, 2-(2-fluorophenyl)-4-(4-pyridylamino)-quinazoline]"
> 300,> 300,310,> 500,240,> 500,34,3.65,≥ 250,"c1ccc(-c2nc(Nc3ccncc3)c3ccccc3n2)cc1 [Compound 7, 2-phenyl-4-(4-pyridylamino)-quinazoline]"
